Measured values reported in US11433033B2, “2,4-dinitrophenol formulations and methods using same” (priority 2013, dated 2022).
Entries after “also recorded” stand apart in the source; their conditions may differ. Like-named read-outs stand apart in the source and are kept apart here.

Columns and labels:
[1] = test system: rats; test: Toxicity studies: rectal temperature, liver enzymes, BUN, creatinine, histology; type: in vivo, rat
Procedure: (§1) Alanine aminotransferase, aspartate aminotransferase, and blood urea nitrogen were measured using the COBAS Mira Plus, and creatinine by LC/MS/MS. Body temperature was measured using a rectal probe (Physitemp Instruments). Histology slides were stained with hematoxylin & eosin, Sirius Red, and TUNEL stains.
Liver and kidney samples were prepared and stained with hematoxylin & eosin by the Yale Research Histology core, and analyzed as described (Kleiner et al., 2005, Hepatology 41:1313-1321).

[2] = test system: two-week high fat fed rats; type: in vivo, rat
Procedure: ERDNP was formulated by Emerson Resources Inc. (Malvern, Pa.) with sustained-release ethylcellulose coating. Rats used for the NAFLD reversal studies were fed high fat diet for 2 weeks, at the end of which they were treated for three days with peanut butter to acclimate them to this food. They were then treated daily with ERDNP mixed in peanut butter, or peanut butter vehicle, at the doses specified in the text daily for 5 days. Zucker Diabetic Fatty rats were treated with ERDNP (1 mg/kg) in peanut butter or peanut butter vehicle daily for 14 days. Blood glucose was measured by glucometer (Abbott) from the tail vein every three days.
as §1
(§2) Plasma triglycerides were measured using a Wako reagent. Liver and quadriceps triacylglycerol were extracted using the method of Bligh and Dyer (Bligh & Dyer, 1959, Can. J. Biochem. Physiol. 37:911-7) and quantified spectrophotometrically using a reagent from Diagnostic Chemicals Ltd. Liver and quadriceps DAG and ceramide concentrations were measured by liquid chromatography/mass spectrometry/mass spectrometry (LC/MS/MS) (Yu, et al., 2002, J. Biol. Chem. 277:50230-6), as were acylcarnitine concentrations (An, et al., 2004, Nat. Med. 10:268-74). Very low-density lipoprotein (VLDL) export was measured (Lee, et al., 2011, Hepatology 54:1650-60). Liver acetyl and malonyl CoA concentrations were measured by LC/MS/MS (Hosokawa, et al., 1986, Anal. Biochem. 153:45-9; Roughan, 1994, Biochem. J. 300:355-8).

[3] = test system: rat model of NAFLD and whole body insulin resistance; test: Continuous low dose intragastric DNP infusion (2 mg/kg per day, 5 days) in high fat fed rats; type: in vivo
Procedure: For the intragastric DNP infusion studies, rats previously fed high fat diet for 2 weeks were placed in a Covance infusion harness attached to a single-axis counter-balanced swivel mount and a stainless steel one-channel swivel (all from Instech Solomon) to protect the catheters and allow the animals free access to the cage. DNP (2 mg/kg per day) or vehicle (10% dimethylsulfoxide/90% saline vehicle) was infused continuously through the […] for 5 days.
Plasma insulin and glucagon were measured by radioimmunoassay. Plasma glucose was measured enzymatically by the YSI Life Sciences 2700 Select Biochemistry Analyzer. Plasma concentrations of twelve inflammatory markers, adiponectin, and FGF-21 were assessed by ELISA (QIAGEN, Life Technologies, and Millipore, respectively). Liver glycogen was measured by amyloglucosidase digestion (Passonneau & Lauderdale, 1974, Anal. Biochem. 60:405-12). Non-esterified fatty acid concentrations were measured by an enzymatic kit (Wako).
as §2

[4] = test system: high fat fed rats; test: Hepatic fluxes (VTCA, VPC, Vfa, VPDH) by [3-13C] lactate infusion, NMR-LC/MS/MS; conditions: rat, in vivo
Procedure: To measure total glutamate enrichment from livers of rats infused with [3-^13C] lactate, ˜100 mg frozen liver were homogenized in 400 μL ice-cold 50% acetonitrile. The samples were centrifuged at 10,000 g for 10 min, and the supernatant was isolated. After overnight storage at 4° C., the samples were centrifuged at 10,000 g for 10 min through a Nanosep 100 k Omega filter (Pall Life Sciences). The flow-through was separated on a hypercarb column (Thermo Scientific; 4.6×100 mm; 5 μm particle size) before ionization for multiple reaction monitoring analysis by LC/MS/MS (Applied Biosystems MDS SCIEX, 4000 Q-TRAP). […]
Spectra were acquired with relaxation time=1 s, dummy scans=32, and number of scans=8,192 per block×3 blocks. Correction factors for differences in T relaxation times were determined from fully relaxed spectra of natural abundance glutamate and glucose solutions. […]
Total glucose enrichment in the NMR extract was determined by derivatizing 20 μL of the NMR extract with 100 μL methanol, then drying overnight in a Speed-Vac. […]
To measure positional alanine enrichment from [3-^13C] lactate infused rat livers, liver samples were extracted for NMR as described above, and the enrichment at [2-^13C] and [3-^13C] alanine was measured by proton-observed, carbon-edited NMR as we have reported (Alves et al., 2011, Hepatology 53:1175-1181). […]

[5] = in vivo; type: in vivo, Sprague-Dawley rats; conditions: for concentration at 5 days: Sprague-Dawley, rat, in vivo, 2 mg/kg per day
[6] = in vivo; type: in vivo, Sprague-Dawley rats
Procedure: Rats consumed the concentrations of DNP or ERDNP specified in the text orally, mixed in peanut butter. All rats used for the kinetics studies consumed the entirety of the peanut butter and protonophore within 2 minutes.
DNP concentrations were measured in plasma, liver, kidney, WAT, quadriceps, heart, and brain of Sprague-Dawley rats by LC/MS/MS (Perry, et al., 2013, Cell. Metab. 18:740-8). Rats treated with DNP were sacrificed 1 hour after treatment with DNP, and those treated with ERDNP were sacrificed 8 hours after treatment, as these were the times determined in the plasma DNP studies to represent the peak plasma DNP concentrations (FIGS. 21A-21B). The minimal detection limit of the method was determined to be […], as this was the minimum concentration of solutions of known quantities of DNP in DMSO measured by the method with less than 20% error in each of three replicates.
LC/MS/MS method development and analysis were performed on the Applied Biosystems 4000 QTRAP (Foster City, Calif.), equipped with a Shimadzu ultra fast liquid chromatography (UFLC) system. Electrospray ionization (ESI) source with negative-ion detection was shown as the most sensitive for both qualitative and quantitative analysis of DNP. The quantitative analysis of DNP was monitored in MRM mode with an ion pair (183.0/109.0). The preferred parameters are: curtain gas 25; collision gas 9, probe temperature 480° C.; […]; ion source gas 2 25; declustering potential (DP) −45 V; entrance potential (EP) −10 V; collision energy (CE) −35 V and collision cell exit potential −12 V.
Plasma samples (10-100 μL) were mixed with 2.0 ml pre-chilled chloroform/methanol (v/v: 2/1) containing 0.01% BHT in 5 ml glass vials, to which was added 250 μl water together with 10 nmol DNP-D3 and 10 nmol DNPME-D6 as the internal standards. The mixtures were vortexed for 10 seconds before centrifugation at 4000 rpm for 10 min. The bottom organic layer was carefully collected and dried with a steady stream of nitrogen gas. The residual was reconstituted in 200 μl methanol for LC/MS/MS analysis for DNP and/or DNPME metabolites.
Frozen tissue samples (˜100 mg) were weighed and suspended in 2 ml microcentrifuge tubes with 1.6 ml pre-chilled chloroform/methanol (v/v: 2/1) containing 0.01% BHT and one metal bead, and then added 10 nmol DNP-d3 (Cambridge Isotopes, Andover, Mass.) as the internal standards. The tissue samples were disrupted with Qiagen TissueLyser at 30 Hz for 15 min, and then transferred into 5 ml glass vials, followed by addition of 0.5 ml chloroform and 250 μl water into each samples. The samples were centrifuged at 4000 rpm for 10 min after vortexed for 10 seconds. The bottom organic layer was collected and dried with a gentle flow of nitrogen. The residual was reconstituted in 200 μl methanol for LC/MS/MS analysis of DNP.

[7] = intragastric DNP 2 mg/kg per day, 5 days

O=[N+]([O-])c1ccc(O)c([N+](=O)[O-])c1 [DNP, 2,4-dinitrophenol]
toxic plasma threshold of DNP ([1]; plasma concentration): ~400 µM
relation between plasma DNP concentration and body temperature ([1]; rats treated with 10-50 mg/kg DNP): strong correlation
daily doses that raised ALT ([2]; daily for five days): above 2 mg/kg
daily doses that raised AST concentrations ([2]; daily for five days): above 1 mg/kg
effect of the highest dose on BUN ([2]; daily for five days): raised BUN
lowest effective dose to decrease liver triglyceride ([2]; daily for five days, two-week high fat fed rats): 5 mg/kg
ratio of toxic to therapeutic dose ([2]; rats): 0.4
toxic dose ([2]; rats): 2 mg/kg
liver enzymes, blood urea nitrogen (BUN) or creatinine ([3]; chronic intragastric DNP infusion 2 mg/kg per day): no observed changes
fasting plasma glucose and insulin concentrations [3, 7]: lower
reductions in liver and muscle TAG and diacylglycerol (DAG) content [3, 7]: > 50%
reductions in plasma triglycerides [3, 7]: > 80%
tissue ceramide content [3, 7]: no changes
concentrations of DNP found to promote subtle increases in hepatic mitochondrial uncoupling [4]: 1 to 5 µM
concentration at 5 days ([5]; intragastric DNP infusion 2 mg/kg per day, 5 days, rats, read-out: steady state liver DNP concentration): ~1000 nM
concentration at 5 days ([5]; intragastric DNP infusion 2 mg/kg per day, 5 days, rats, read-out: steady state plasma DNP concentration): ~3000 nM
sustained plasma and tissue concentrations of DNP that reversed hepatic steatosis and insulin resistance ([5]; continuous intragastric DNP infusion, rat model of NAFLD): 1-3 VM
plasma DNP concentrations, fold lower than the threshold where DNP toxicity is first detected ([5]; continuous low dose intragastric infusion of DNP): ~100 fold
sustained plasma and liver concentrations of DNP that reversed fatty liver and whole body insulin resistance ([5]; continuous low dose intragastric infusion, high fat rat model of NAFLD): 1 to 3 µM
DNP concentration in skeletal muscle ([5]; intragastric DNP infusion 2 mg/kg per day, 5 days, rats): negligible
tissue DNP concentrations after chronic treatment compared with one (or five) daily doses ([6]; 1 mg/kg per day, rats): no differences; also recorded: did not differ significantly
maximum plasma concentration of DNP, fold higher with DNP treatment than with ERDNP ([6]; 25 mg/kg DNP versus 1 mg/kg ERDNP): 30 fold
concentration at 8 hours ([6]; Sprague-Dawley, rat, in vivo, 1 mg/kg, 8 hours after the last of five daily 1 mg/kg doses (FIG. 21J), read-out: DNP concentrations in all tissues following chronic treatment): < 10000 nM
half-life ([6]; Sprague-Dawley, rat, in vivo, 25 mg/kg, plasma DNP, rats): 8 to 12 h
peak DNP liver concentration ([6]; dose of DNP 5 mg/kg, rat): ~60 µM
peak plasma DNP concentration ([6]; dose of DNP 5 mg/kg, rat): ~120 µM
area under the plasma DNP concentration curve ([6]; oral, rats, 1 mg/kg ERDNP versus 25 mg/kg DNP): 4,311±555
time of maximum concentration of DNP ([6]; plasma, rats, 1 mg/kg ERDNP versus 25 mg/kg DNP): one
